These results are taken from patent US8455688B2, “HDAC inhibitors” (Lixte Biotechnology, Inc., priority 2007, dated 2013).

“Also recorded” adds a separate entry of the source.

One series has as its system MDA-MB-231 Breast. The series is described as follows: CellTiter-Glo proliferation assay, MDA-MB-231. Particulars: Homo sapiens, 72 hr incubation, read-out: IC50 (50% inhibition of proliferation). Format: cell-based. From the text:
(§1) MDA-MB-231, HT-29, NCI-H460, NCI-H522, NCI-H69, GXF-209, HepG2, OVAR-3, PANC-1, DU-145, LNCAP, HL-60, K-562, and MOLT-4 cell lines were either obtained from the American Type Culture Collection (ATCC; Manassas, Va.), or from the National Cancer Institute (NCl; Frederick, Md.). RPM-1640 media, L-glutamine dipeptide (HyQ SG-200), and HEPES were obtained from Hyclone (Logan, Utah). Fetal bovine serum (FBS) was obtained from Sigma-Aldrich, (St. Louis, Mo.). DMSO was purchases from Fisher Chemicals (Fair Lawn, N.J.). The CellTiter-Glo Luminescent Cell Viability Assay reagent was obtained from Promega Corporation (Madison, Wis.). All tissue culture plasticware was obtained from Corning Incorporated (New York, N.Y.). Compound 100 and Compound 102 were provided by Lixte Biotechnology Holdings, Inc. (East Setauket, N.Y.). All cell lines were routinely cultured twice weekly in RPMI-1640 medium supplemented with 2 mM L-glutamine dipeptide, 10 mM HEPES, and 10% FBS. The adherent cell lines MDA-MB-231, HT-29, NCI-H460, NCI-H522, GXF-209, HepG2, OVAR-3, PANC-1, DU-145, and LNCAP cells were each seeded into two 96-well plates at 2,500 cells per well in a total volume of 50 uL and incubated in a 37 C humidified 5% CO2 cell culture incubator overnight. […] Luminescence was then recorded using the PerkinElmer Microbeta scintillation and luminescence counter (Trilux).
(In general: Cellular ATP, detected with luciferase, serves as a proxy for viable cell number.)

For the next series, the system named is HT-29 Colon. The series is described as follows: CellTiter-Glo proliferation assay, HT-29. To be noted: Homo sapiens, 72 hr incubation, read-out: IC50 (50% inhibition of proliferation). It is filed as cell-based.
Source text: as §1

Another series concerns NCI-H460 Lung large cell. The series is described as follows: CellTiter-Glo proliferation assay, NCI-H460. It is filed as cell-based. Particulars: Homo sapiens, 72 hr incubation, read-out: IC50 (50% inhibition of proliferation).
Source text: as §1

In a further series the test system is NCI-H522 Lung adenoca. As to the kind of experiment: CellTiter-Glo proliferation assay, NCI-H522. To be noted: Homo sapiens, 72 hr incubation, read-out: IC50 (50% inhibition of proliferation). Format: cell-based.
Source text: as §1

In the next series the test system is NCI-H69 Lung small cell. The series is described as follows: CellTiter-Glo proliferation assay, NCI-H69. To be noted: Homo sapiens, 72 hr incubation, read-out: IC50 (50% inhibition of proliferation). It is filed as cell-based.
Source text: as §1

A further series deals with GXF-209 Stomach. As to the kind of experiment: CellTiter-Glo proliferation assay, GXF-209. It is filed as cell-based. To be noted: Homo sapiens, 72 hr incubation, read-out: IC50 (50% inhibition of proliferation).
Source text: as §1

A further series deals with HepG2 Hepatoma. The series is described as follows: CellTiter-Glo proliferation assay, HepG2. Format: cell-based. Particulars: Homo sapiens, 72 hr incubation, read-out: IC50 (50% inhibition of proliferation).
Source text: as §1

Another series concerns OVCAR-3 Ovary adenoca. The series is described as follows: CellTiter-Glo proliferation assay, OVCAR-3. Format: cell-based. Particulars: Homo sapiens, 72 hr incubation, read-out: IC50 (50% inhibition of proliferation).
Source text: as §1

The next series relates to PANC-1 Pancreas. As to the kind of experiment: CellTiter-Glo proliferation assay, PANC-1. It is filed as cell-based. Particulars: Homo sapiens, 72 hr incubation, read-out: IC50 (50% inhibition of proliferation).
Source text: as §1

The test system of another series is DU-145 Prostate. As to the kind of experiment: CellTiter-Glo proliferation assay, DU-145. It is filed as cell-based. Particulars: Homo sapiens, 72 hr incubation, read-out: IC50 (50% inhibition of proliferation).
Source text: as §1

The next series relates to LNCAP Prostate. As to the kind of experiment: CellTiter-Glo proliferation assay, LNCAP. It is filed as cell-based. To be noted: Homo sapiens, 72 hr incubation, read-out: IC50 (50% inhibition of proliferation).
Source text: as §1

Series [1] concerns HL-60 Leukemia promyelocytic. The series is described as follows: CellTiter-Glo proliferation assay, HL-60. Format: cell-based. Particulars: Homo sapiens, 72 hr incubation, estimated from the data, no curve fit possible, read-out: IC50 (50% inhibition of proliferation).
Source text: as §1

The subject of series [2] is K562 Leukemia chronic myelo. The series is described as follows: CellTiter-Glo proliferation assay, K562. Format: cell-based. Particulars: Homo sapiens, 72 hr incubation, read-out: IC50 (50% inhibition of proliferation).
Source text: as §1

The subject of series [3] is MOLT-4 Leukemia acute lympho. The series is described as follows: CellTiter-Glo proliferation assay, MOLT-4. It is filed as cell-based. Particulars: Homo sapiens, 72 hr incubation, read-out: IC50 (50% inhibition of proliferation).
Source text: as §1

For series [4], the system named is medulloblastoma cell line DAOY. As to the kind of experiment: Inhibition of growth of medulloblastoma cell line DAOY. Format: cell-based.
A further series deals with SHSY-5Y xenografts. As to the kind of experiment: Inhibition of SHSY-5Y xenografts. Particulars: in vivo.
The subject of the next series is normal mouse brain cells. As to the kind of experiment: Viability of normal mouse brain cells.
The next series concerns human cancer cell lines. The series is described as follows: Proliferation of multiple human cancer cell lines (panel summary). Format: cell-based. To be noted: panel of Table 2.
Source text: as §1

The melting point is the temperature of the solid-liquid transition.

Compound `CN(C)c1ccc(NC(=O)CCCCCNC(=O)c2ccccc2S)cc1` [Compound 206, 2-Mercapto-N-[5-(4-dimethylamino-3-yl-carbamoyl)pentyl]benzamide] yielded a melting point of 108 to 110 °C.
As for `O=C(CCCCCNC(=O)c1ccccc1S)Nc1cccnc1` [Compound 205, 2-Mercapto-N-[5-(pyridin-3-ylcarbamoyl)pentyl]benzamide], the IC50 was 24.8 µM in the series with MDA-MB-231 Breast; 47.6 µM with HT-29 Colon; more than 100 µM with NCI-H460 Lung large cell; 1800 nM in the series with NCI-H522 Lung adenoca; 16.1 µM with NCI-H69 Lung small cell; 22 µM with GXF-209 Stomach. Besides, the IC50 in the series with HepG2 Hepatoma was 53.1 µM; in the series on OVCAR-3 Ovary adenoca it was 18.7 µM; in the series with PANC-1 Pancreas, 11.9 µM; in the series with DU-145 Prostate, 50.2 µM; in the series with LNCAP Prostate, 6.2 µM; in series [1] it was approximately 60 µM. In addition, the IC50 came out at 58.3 µM in series [2] and 26.3 µM in series [3]. Further, the “activity against medulloblastoma cell line DAOY” value in [4] is given as “active”. The “activity against the growth of SHSY-5Y xenografts” value with SHSY-5Y xenografts was “shows activity”. Moreover, the “viability of normal mouse brain cells compared to control” value in the series on normal mouse brain cells is recorded as “high viability”. The “activity against human cancer cell lines” value in the series with human cancer cell lines is on record as “low uM range; also recorded: active against multiple human cancer cell lines at low micromolar concentrations”. The “cancer types against which most active” value with human cancer cell lines was “most active against lung adenocarcinoma, stomach cancer, pancreatic cancer, and breast cancer”.
